Results: US12643899B2, “Antiviral agents, uses thereof and methods for their preparation” (The University of British Columbia, priority 2020, dated 2026)

How the values were obtained:
[1] = system: ZIKV; assay: Secreted NS1 (sNS1) ELISA, ZIKV-infected A549 cells; type: cell-based, Zika virus; conditions: Zika virus, 24 h pre-treatment, MOI 1.0, 2 d
Experimental: (§1) Error bars represent SD among 2 biological replicates.
(§2) Cultured A549 cells were treated with various concentrations of CA or PF-429242 for 24 h before being washed with PBS and inoculated with ZIKV (ZIKV strain VR 1843, Puerto Rico, 2015; ATCC) at MOI 1.0 for 1 h. Following the removal of the inoculum, cells were incubated in fresh media for 2 d before the supernatant was collected, clarified, and secreted NS1 protein abundance was measured by an ELISA kit (BioFront Technologies) according to the manufacturer's instructions. Curve fitting was performed in Igor Pro (WaveMetrics) using a hyperbolic fit algorithm (FIG. 4; upper and middle plots) and IC50 and TI values obtained. IC50 and TI values were also obtained for CA via plaque assay (PFU; FIG. 4, lower plot). FIG. 4 (upper plot) is an ED50 curve for the PF inhibitor based on the detection of secreted Non-Structural protein 1 (sNS1), secreted viral biomarker. sNS1 was detected using an Elisa test (commercially available). FIG. 4 (middle plot) is an ED50 curve for CA based on the detection of secreted Non-Structural protein 1 (sNS1), secreted viral biomarker. sNS1 was detected using an Elisa test (commercially available).

[2] = system: ZIKV; assay: Extracellular ZIKV titer in infected brain organoids; type: cell-based, Zika virus; conditions: 1 μM CA, 72 hours
Experimental: FIG. 18 is a plot showing extracellular ZIKV titer for four brain organoid systems after treatment with 1 μM CA for 72 hours in comparison to untreated controls.
FIG. 17 is a schematic showing the general method 20 used in Example 6. Referring to FIG. 17, following growth of the brain organoids in STEMdiff™ media 22 (4 organoids/well), the media was aspirated 24. Then, 500 μL ZIKV at the desired MOI in fresh media was added 26 and the brain organoids incubated at 37° C. for 3 hours with gentle shaking 28. The brain organoids were then washed with 2×1 mL PBS 30, and fresh media and CA or cladoniamide C (CC) added to the desired concentration 32 prior to incubation for the desired time at 37° C. 34. The supernatant was collected and frozen at −86° C. 36 prior to analysis and the brain organoids transferred to an Eppendorf with paraformaldehyde for electron microscopy 38.
FIG. 18 is a plot showing the anti-ZIKV activity of cladoniamide A (incubation with 1 μM CA for 72 hours; 2 biological replicates, each with 4 organoids/well) using four brain organoid systems. There was a greater than 4-log reduction in extracellular ZIKV titer when treated with CA. […] FIGS. 20 and 21 show plots showing the anti-ZIKV activity of CA and CC (incubation with 10 μM CA or CC for 69 hours, MOI 1; 4 technical replicates as there were 4 organoids/[…]).

[3] = system: ZIKV; assay: Time-of-addition study of ZIKV infection in A549 cells (plaque assay); type: cell-based, Zika virus; conditions: 250 nM CA; full lifecycle, pre-replication, post-replication; A549, MOI 1.0
Experimental: Error bars represent SEM among 3 biological replicates. Significance was calculated by a 2-tailed unpaired Student's t-test. *, p<0.05.
Cultured A549 cells were inoculated with ZIKV for 1 h at MOI 1.0, and maintained for 2 d under different experimental conditions. For “Full lifecycle” 250 nM CA was added following the inoculation and maintained in the medium for 2 d; for “Pre-replication” 250 nM CA was added following the inoculation and maintained in the medium for 6 h, after which the cells were washed with PBS and the medium was changed; and for “Post-replication” 250 nM CA was added to the culture medium 12 hours post infection (hpi) and maintained until 24 hpi, after which the cells were washed with PBS and the medium was changed.

[4] = system: ZIKV; assay: ZIKV viral dsRNA imaging (Cellomics ArrayScan VTI) in A549 cells; type: cell-based, Zika virus; conditions: 15 μM, 1 h pre-treatment, MOI 1, 48 h
[5] = system: DENV-2; assay: DENV-2 intracellular dsRNA (Cellomics) in A549 cells; type: cell-based, dengue virus
Experimental: Error bars represent SD among 3 biological replicates. Cultured A549 cells were treated with the indicated concentrations of CA (1=Mock, 2=0 M, 3=1 μM, 4=5 M, 5=10 M, 6=20 µM) or PF-429242 (7=15 M) for 1 h before being washed with PBS and infected with DENV-2, DENV-3, or DENV-4 at MOI 1.0 for 48 h. Cells were labeled for viral dsRNA with […] then imaged and quantified using the Cellomics ArrayScan™ VTI High Content Screening system.
Viruses. ZIKV: ZIKV strain PRVABC59 (Puerto Rico/2015) (ATCC #VR-1843) was used in these studies, specifically three separate stocks generated in Vero E6 cells with titres of 1.35×10^8 pfu/mL, 1.0×10^7 pfu/mL, and 2.9×10^6 pfu/mL respectively. DENV strains: DENV-2 strain NGC, DENV-3 strain H-87, and DENV-4 strain H-241 were kindly provided by National Microbiology Laboratory, Winnipeg, MB, Canada.
A549 cells were seeded onto Corning tissue culture treated 96 well plates and incubated at 37 degrees Celsius and 5% CO2 for 24 h. CA was diluted in MEM complete media to concentrations of 1 μM, 5 μM, 10 μM, 20 μM, including a 0 μM condition. Diluted CA was added to each well and cells were incubated at 37 degrees Celsius and 5% CO2 for 1 h. After 1 h, cells were washed once with PBS to remove CA and were then infected with DENV-2, -3 or -4 at an MOI of 1. […] Labeled 96 well plates were imaged and quantified using the Cellomics ArrayScan VTI. […]

[6] = system: ZIKV; assay: Plaque assay (PFU) dose response, ZIKV-infected A549 cells; type: cell-based; conditions: Zika virus
Experimental: as §1, §2
Bottom: ED50 curve for CA based on the detection of secreted infectious virus particles, as viral biomarker. Titer of the infectious virus particles (Plaque forming units) determined using plaque assays.

[7] = target: T1, V-ATPase (Homo sapiens, UniProt P27449); assay: Acridine orange vital staining of intracellular organelles of A549 cells (V-ATPase inhibition); type: cell-based; conditions: CA 250 nM, 6 h
T1 construct: endogenous in cells; host or cells: A549 cells (ATCC #CCL-185, or acquired from Synthego)
T1 sequence (P27449 whole entry, looked up): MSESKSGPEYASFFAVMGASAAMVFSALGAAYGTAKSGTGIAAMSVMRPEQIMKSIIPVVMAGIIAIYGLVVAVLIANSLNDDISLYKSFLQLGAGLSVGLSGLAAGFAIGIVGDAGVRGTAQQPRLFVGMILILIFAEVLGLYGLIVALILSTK
Experimental: Cultured A549 cells were treated with 1 μM CD, or 250 nM CA or the V-ATPase specific inhibitor bafilomycin A1 (100 nm) for 6 h. After removing the culture medium and washing the cells with Hanks' balanced salt solution (HBSS), a 1:4000 dilution of acridine orange (2% solution, Polysciences Inc.) in HBSS was added to cells and incubated for 10 min. Cells were then washed again with HBSS and analyzed by fluorescence microscopy. In color images, a red color corresponds to the protonated version of the molecule, which permeates acidic organelles and becomes sequestered following protonation. One representative of 3 biological replicates is shown.

COc1c2n(c3ccccc13)[C@]1(O)C(=O)N(C)C(=O)[C@]1(O)c1c-2[nH]c2ccc(Cl)cc12 [CA, (11S,15R)-7-chloro-11,15-dihydroxy-23-methoxy-13-methyl-3,13,16-triazahexacyclo[14.7.0.0^2,10.0^4,9.0^11,15.0^17,22]tricosa-1(23),2(10),4(9),5,7,17,19,21-octaene-12,14-dione]
IC50 [1]: 80 nM | reduction in extracellular ZIKV titer [2]: greater than 4 log | step of ZIKV infection inhibited [3]: dual inhibitor of ZIKV infection targeting the entry and maturation steps | activity against ZIKV (viral dsRNA) [4]: good activity | activity against Dengue virus 2 in vitro ([5]; 1-20 μM, FIG. 8 upper plots): good activity | IC50 ([5]; Dengue virus, DENV2, DENV-2, intracellular dsRNA (Cellomics)): 2300 nM | IC50 [6]: 110 nM | vital staining with acridine orange of intracellular organelles [7]: inhibited vital staining
